Consider 32 molecules from patent US12091411B2, “IRAK degraders and uses thereof” (Kymera Therapeutics, Inc., priority 2022, dated 2024).

The target in the assay is T1, IRAK4 (Homo sapiens, UniProt Q9NWZ3).
T1 construct: Degradation of IRAK4 in OCI-LY10 was quantitatively measured using Meso Scale Discovery technology; endogenous in cells; host or cells: OCI-LY10
T1 sequence (Q9NWZ3 1-460): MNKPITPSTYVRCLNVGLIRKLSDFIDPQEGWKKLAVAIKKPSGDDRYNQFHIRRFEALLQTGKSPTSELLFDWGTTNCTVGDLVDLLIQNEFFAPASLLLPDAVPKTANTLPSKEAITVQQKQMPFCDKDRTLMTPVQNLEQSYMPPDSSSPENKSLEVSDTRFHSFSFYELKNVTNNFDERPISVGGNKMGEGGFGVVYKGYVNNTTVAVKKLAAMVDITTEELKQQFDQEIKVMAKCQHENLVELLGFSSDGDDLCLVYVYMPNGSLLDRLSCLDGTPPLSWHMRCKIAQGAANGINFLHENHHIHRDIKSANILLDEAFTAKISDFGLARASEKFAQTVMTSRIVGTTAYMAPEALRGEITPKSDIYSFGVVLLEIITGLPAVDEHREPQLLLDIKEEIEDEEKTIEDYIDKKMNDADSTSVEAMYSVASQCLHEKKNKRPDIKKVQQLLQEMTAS
Briefly: IRAK4 MSD Degradation in OCI-LY10. It counts as cell-based. Particulars: OCI-LY10 cells, MSD. A digest of the protocol: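 OCI-LY10 cells exposed to 8-point 1:3 compound series (top 1 to 10 μM) for 4 to 24 h at 37 °C, 5% CO2. Lysate IRAK4 quantified by MSD sandwich immunoassay. DC50 from three-parameter logistic fit, binned A (<0.01 μM) to D (>0.2 μM or not tested).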

Setting [1] is: 4 hrs incubation, read-out: IRAK4 degradation in OCI-LY10 at 4 hrs: DC50.
Where [2] appears, read: 24 hrs incubation, read-out: IRAK4 degradation in OCI-LY10 at 24 hrs: DC50.

Like-named read-outs stand apart in the source and are kept apart here.

For `Cn1c(=O)n(C2CCC(=O)NC2=O)c2cccc([C@H]3C[C@H](CO[C@@H]4CCN(C[C@H]5CC[C@H](n6cc(NC(=O)c7cnn8ccc(N9C[C@H]%10C[C@@H]9CO%10)nc78)c(C(F)F)n6)CC5)C[C@@H]4F)C3)c21` (stereo partly shown) [I-722], the DC50 – broadly, the concentration giving 50% degradation – runs as follows: under setting [1], over 200 nM; under setting [2], under 10 nM.

As to `Cn1c(=O)n(C2CCC(=O)NC2=O)c2cccc(N3CCN(C4CCN(C[C@H]5CC[C@H](n6cc(NC(=O)c7cnn8ccc(N9CCC%10(COC%10)C9)nc78)c(C(F)F)n6)CC5)CC4(F)F)CC3)c21` (stereo partly shown) [I-723], the DC50 is over 200 nM under setting [1] and under 10 nM under setting [2].

Consider `Cn1c(=O)n(C2CCC(=O)NC2=O)c2ccc(N3CC(CN4CCN(C[C@H]5CC[C@H](n6cc(NC(=O)c7cnn8ccc(N9C[C@H]%10C[C@@H]9CO%10)nc78)c(C(F)F)n6)CC5)CC4)C3)c(F)c21` (stereo partly shown) [I-724], for which the DC50 by setting is: under setting [1], over 200 nM; under setting [2], under 10 nM.

Consider `Cn1c(=O)n(C2CCC(=O)NC2=O)c2ccc(N3CC(CO[C@@H]4CCN(CC5CCC(n6cc(NC(=O)c7cnn8ccc(N9C[C@H]%10C[C@@H]9CO%10)nc78)c(C(F)F)n6)CC5)C[C@@H]4F)C3)c(F)c21` (stereo partly shown) [I-725], for which the DC50 is over 200 nM under setting [1] and over 200 nM under setting [2].

As for `Cn1c(=O)n(C2CCC(=O)NC2=O)c2cccc(C3=CCN(C[C@H]4CC[C@H](n5cc6cc(NC(=O)c7cccc(C(F)(F)F)n7)c(C(F)F)cc6n5)CC4)CC3F)c21` (stereo partly shown) [I-726], the DC50 is, setting by setting: under setting [1], over 200 nM; under setting [2], under 10 nM.

Consider `Cc1cccc(C(=O)Nc2ccc3nn([C@H]4CC[C@H](CN5CC[C@@H](c6cccc7c6n(C)c(=O)n7C6CCC(=O)NC6=O)[C@H](F)C5)CC4)cc3c2)n1` (stereo partly shown) [I-727], for which the DC50 under setting [1] is over 200 nM and the DC50 under setting [2] was under 10 nM.

In the case of `Cn1c(=O)n(C2CCC(=O)NC2=O)c2cccc(N3CC(O[C@H]4CCN(C[C@H]5CC[C@H](n6cc(NC(=O)c7cnn8ccc(N9C[C@H]%10C[C@@H]9CO%10)nc78)c(C(F)F)n6)CC5)C[C@H]4F)C3)c21` (stereo partly shown) [I-728], the DC50 reads like this: under setting [1], over 200 nM; under setting [2], under 10 nM.

Regarding `CO[C@]1(CN2CCN(C[C@H]3CC[C@H](n4cc(NC(=O)c5cnn6ccc(N7C[C@H]8C[C@@H]7CO8)nc56)c(C(F)F)n4)CC3)CC2)C[C@@H](c2cccc3c2n(C)c(=O)n3C2CCC(=O)NC2=O)C1` (stereo partly shown) [I-729], the DC50 is over 200 nM under setting [1] and under 10 nM under setting [2].

In the case of `Cn1c(=O)n(C2CCC(=O)NC2=O)c2cccc(N3CC(N4CCN([C@H]5CC[C@H](n6cc(NC(=O)c7cnn8ccc(N9C[C@H]%10C[C@@H]9CO%10)nc78)c(C(F)F)n6)CC5)CC4)C3)c21` (stereo partly shown) [I-730], the DC50 is over 200 nM under setting [1] and under 10 nM under setting [2].

As for `Cn1c(=O)n(C2CCC(=O)NC2=O)c2cccc(C3CCN(C[C@H]4CC[C@H](n5cc6cc(NC(=O)c7cccc(C#N)n7)ncc6n5)CC4)CC3F)c21` (stereo partly shown) [I-731], the DC50 under setting [1] is over 200 nM and the DC50 under setting [2] was under 10 nM.

On to `Cn1c(=O)n(C2CCC(=O)NC2=O)c2cccc(N3CC(O[C@@H]4CCN(C[C@H]5CC[C@H](n6cc(NC(=O)c7cnn8ccc(N9C[C@H]%10C[C@@H]9CO%10)nc78)c(C(F)F)n6)CC5)C[C@H]4F)C3)c21` (stereo partly shown) [I-732], for which the DC50 by setting is: under setting [1], over 200 nM; under setting [2], under 10 nM.

In the case of `Cn1c(=O)n(C2CCC(=O)NC2=O)c2cccc(N3CC(O[C@H]4CCN(C[C@H]5CC[C@H](n6cc(NC(=O)c7cnn8ccc(N9C[C@H]%10C[C@@H]9CO%10)nc78)c(C(F)F)n6)CC5)C[C@@H]4F)C3)c21` (stereo partly shown) [I-733], the DC50 under setting [1] was over 200 nM and the DC50 under setting [2] is under 10 nM.

Consider `Cn1c(=O)n(C2CCC(=O)NC2=O)c2cccc(C3CCN(CC4CCC(n5cc6cc(NC(=O)c7cnn8ccc(N9CC%10CC9CO%10)cc78)ncc6n5)CC4)CC3(F)F)c21` (stereo not shown) [I-734], for which the DC50 is over 200 nM under setting [1] and under 10 nM under setting [2].

Take `Cn1c(=O)n(C2CCC(=O)NC2=O)c2cccc(N3CCN(C4CCN(C[C@H]5CC[C@H](n6cc(NC(=O)c7cnn8ccc(N9CC%10(COC%10)C9)nc78)c(C(F)F)n6)CC5)CC4(F)F)CC3)c21` (stereo partly shown) [I-735]: the DC50 under setting [1] was over 200 nM and the DC50 under setting [2] was under 10 nM.

With `Cn1c(=O)n(C2CCC(=O)NC2=O)c2ccc(N3CC4(CCN(C[C@H]5CC[C@H](n6cc7cc(NC(=O)c8cccc(C(F)(F)F)n8)ncc7n6)CC5)CC4(F)F)C3)c(F)c21` (stereo partly shown) [I-737], the DC50 under setting [1] is over 200 nM and the DC50 under setting [2] lay within 10 to 100 nM.

As to `Cn1c(=O)n(C2CCC(=O)NC2=O)c2cccc(OC3CCN([C@H]4CC[C@H](n5cc(NC(=O)c6cnn7ccc(N8C[C@H]9C[C@@H]8CO9)nc67)c(C(F)F)n5)CC4)CC3)c21` (stereo partly shown) [I-739], the DC50 reads like this: under setting [1], over 200 nM; under setting [2], under 10 nM.

With `Cn1c(=O)n(C2CCC(=O)NC2=O)c2cccc(OC3CCN([C@H]4CC[C@H](n5cc6cc(NC(=O)c7cccc(C(F)(F)F)n7)ncc6n5)CC4)CC3)c21` (stereo partly shown) [I-740], the DC50 is over 200 nM under setting [1] and under 10 nM under setting [2].

Take `Cn1c(=O)n(C2CCC(=O)NC2=O)c2cccc(OC3CCN([C@H]4CC[C@H](n5cc6cc(NC(=O)c7cccc(C(F)(F)F)n7)ccc6n5)CC4)CC3)c21` (stereo partly shown) [I-741]: the DC50 reads like this: under setting [1], over 200 nM; under setting [2], under 10 nM.

Consider `Cn1c(=O)n(C2CCC(=O)NC2=O)c2ccc(N3CC(CO[C@@H]4CCN(C[C@H]5CC[C@H](n6cc(NC(=O)c7cnn8ccc(N9C[C@H]%10C[C@@H]9CO%10)nc78)c(C(F)F)n6)CC5)C[C@H]4F)C3)c(F)c21` (stereo partly shown) [I-742], for which the DC50 is over 200 nM under setting [1] and under 10 nM under setting [2].

For `Cn1c(=O)n(C2CCC(=O)NC2=O)c2ccnc(N3CCN([C@@H]4CCN(C[C@H]5CC[C@H](n6cc(NC(=O)c7cnn8ccc(N9C[C@H]%10C[C@@H]9CO%10)nc78)c(C(F)F)n6)CC5)CC4(F)F)CC3)c21` (stereo partly shown) [I-743], the 50% degradation concentration (DC50) is over 200 nM under setting [1] and under 10 nM under setting [2].

For the molecule `Cn1c(=O)n(C2CCC(=O)NC2=O)c2ccnc(N3CCN([C@H]4CCN(C[C@H]5CC[C@H](n6cc(NC(=O)c7cnn8ccc(N9C[C@H]%10C[C@@H]9CO%10)nc78)c(C(F)F)n6)CC5)CC4(F)F)CC3)c21` (stereo partly shown) [I-744], the DC50 is over 200 nM under setting [1] and under 10 nM under setting [2].

Turning to `Cn1c(=O)n(C2CCC(=O)NC2=O)c2ccc(F)c(N3CC(N4CCN([C@H]5CC[C@H](n6cc(NC(=O)c7cnn8ccc(N9C[C@H]%10C[C@@H]9CO%10)nc78)c(C(F)F)n6)CC5)CC4)C3)c21` (stereo partly shown) [I-745], the DC50 by setting is: under setting [1], over 200 nM; under setting [2], under 10 nM.

For the molecule `Cn1c(=O)n(C2CCC(=O)NC2=O)c2cccc(N3CCN([C@@H]4CCN(C[C@H]5CC[C@H](n6cc(NC(=O)c7cnn8ccc(N9CC%10(COC%10)C9)nc78)c(C(F)F)n6)CC5)CC4(F)F)CC3)c21` (stereo partly shown) [I-746], the DC50 reads like this: under setting [1], over 200 nM; under setting [2], over 200 nM.

`Cn1c(=O)n(C2CCC(=O)NC2=O)c2cccc(N3CCN([C@H]4CCN(C[C@H]5CC[C@H](n6cc(NC(=O)c7cnn8ccc(N9CC%10(COC%10)C9)nc78)c(C(F)F)n6)CC5)CC4(F)F)CC3)c21` (stereo partly shown) [I-747]: the DC50 is, setting by setting: under setting [1], over 200 nM; under setting [2], over 200 nM.

With `Cn1c(=O)n(C2CCC(=O)NC2=O)c2cccc(N3CC(CN4CCN(C[C@H]5CC[C@H](n6cc(NC(=O)c7cnn8ccc(N9C[C@H]%10C[C@@H]9CO%10)nc78)c(C(F)F)n6)CC5)CC4)C3)c21` (stereo partly shown) [I-748], the DC50 is over 200 nM under setting [1] and over 200 nM under setting [2].

On to `Cn1c(=O)n(C2CCC(=O)NC2=O)c2cccc(C3CN([C@@H]4CCN([C@H]5CC[C@H](n6cc(NC(=O)c7cnn8ccc(N9C[C@H]%10C[C@@H]9CO%10)nc78)c(C(F)F)n6)CC5)CC4(F)F)C3)c21` (stereo partly shown) [I-749], for which the DC50 under setting [1] was over 200 nM and the DC50 under setting [2] is over 200 nM.

As for `Cn1c(=O)n(C2CCC(=O)NC2=O)c2cccc(C3CN([C@H]4CCN([C@H]5CC[C@H](n6cc(NC(=O)c7cnn8ccc(N9C[C@H]%10C[C@@H]9CO%10)nc78)c(C(F)F)n6)CC5)CC4(F)F)C3)c21` (stereo partly shown) [I-750], the DC50 under setting [1] is over 200 nM and the DC50 under setting [2] is over 200 nM.

Regarding `Cn1c(=O)n(C2CCC(=O)NC2=O)c2ccc(N3CC(N4CCN([C@H]5CC[C@H](n6cc(NC(=O)c7cnn8ccc(N9C[C@H]%10C[C@@H]9CO%10)nc78)c(C(F)F)n6)CC5)CC4)C3)c(F)c21` (stereo partly shown) [I-751], the DC50 by setting is: under setting [1], over 200 nM; under setting [2], over 200 nM.

`Cn1c(=O)n(C2CCC(=O)NC2=O)c2ccc(C3CN(C4CCN([C@H]5CC[C@H](n6cc(NC(=O)c7cnn8ccc(N9C[C@H]%10C[C@@H]9CO%10)nc78)c(C(F)F)n6)CC5)CC4(F)F)C3)c(F)c21` (stereo partly shown) [I-752]: the DC50 under setting [1] was over 200 nM and the DC50 under setting [2] is over 200 nM.

With `Cn1c(=O)n(C2CCC(=O)NC2=O)c2ccc(F)c(C3CN(C4CCN([C@H]5CC[C@H](n6cc(NC(=O)c7cnn8ccc(N9C[C@H]%10C[C@@H]9CO%10)nc78)c(C(F)F)n6)CC5)CC4(F)F)C3)c21` (stereo partly shown) [I-753], the DC50 runs as follows: under setting [1], over 200 nM; under setting [2], over 200 nM.

For the molecule `Cn1c(=O)n(C2CCC(=O)NC2=O)c2cccc(OC3CCN([C@H]4CC[C@H](n5cc6cc(NC(=O)c7cccc(C(F)(F)F)n7)ccc6n5)CC4)CC3(F)F)c21` (stereo partly shown) [I-754], the DC50 is over 200 nM under setting [1] and over 200 nM under setting [2].

Regarding `Cn1c(=O)n(C2CCC(=O)NC2=O)c2cccc(OC3CCN([C@H]4CC[C@H](n5cc6cc(NC(=O)c7cccc(C(F)(F)F)n7)ncc6n5)CC4)CC3(F)F)c21` (stereo partly shown) [I-755], the DC50 is over 200 nM under setting [1] and over 200 nM under setting [2].
